Reference: PubChem BioAssay (NCI)
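Method: 48-hour compound exposure of cells in 96-well plates, five concentrations, linear interpolation of endpoints. Here, GI50 denotes the concentration required for 50% inhibition of growth. TGI is the concentration that stops growth completely.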

Columns and labels:
Assay in all cases: DTP human tumour cell line panel, 48 h
[1] = system: UACC-62 melanoma
[2] = system: SW-620 colon
[3] = system: MALME-3M melanoma
[4] = system: MDA-MB-435
[5] = system: SK-OV-3 ovarian
[6] = system: CCRF-CEM leukemia
[7] = system: M14 melanoma
[8] = system: SF-295 CNS
[9] = system: BT-549 breast
[10] = system: NCI-H522 lung
[11] = system: UACC-257 melanoma
[12] = system: IGROV1 ovarian
[13] = system: A498 renal
[14] = system: KM12 colon
[15] = system: MOLT-4 leukemia
[16] = system: HL-60(TB) leukemia
[17] = system: HOP-92 NSCLC
[18] = system: OVCAR-4 ovarian
[19] = system: SK-MEL-2 melanoma
[20] = system: HCT-15 colon
[21] = system: OVCAR-3 ovarian
[22] = system: DU-145 prostate
[23] = system: PC-3 prostate
[24] = system: CAKI-1 renal
[25] = system: ACHN renal
[26] = system: HCT-116 colon
[27] = system: EKVX NSCLC
[28] = system: SF-539 CNS
[29] = system: COLO 205 colon
[30] = system: 786-0 renal
[31] = system: SNB-75 CNS
[32] = system: MDA-MB-231 breast
[33] = system: NCI/ADR-RES ovarian
[34] = system: HCC-2998 colon
[35] = system: UO-31 renal
[36] = system: K-562 leukemia
[37] = system: SK-MEL-28 melanoma
[38] = system: NCI-H460 lung
[39] = system: TK-10 renal
[40] = system: SNB-19 CNS
[41] = system: NCI-H23 lung
[42] = system: SN12C renal
[43] = system: SK-MEL-5 melanoma
[44] = system: OVCAR-5 ovarian
[45] = system: SR leukemia
[46] = system: HT29 colon
[47] = system: MCF7 breast
[48] = system: NCI-H226 lung
[49] = system: LOX IMVI melanoma
[50] = system: T-47D breast
[51] = system: OVCAR-8 ovarian
[52] = system: SF-268 CNS
[53] = system: A549 NSCLC
[54] = system: HOP-62 NSCLC
[55] = system: U251 CNS
[56] = system: HS 578T breast
[57] = system: RPMI-8226 leukemia

SMILES: COc1cc2cc(Oc3ccc(NC(=O)Nc4ccc(Cl)c(C(F)(F)F)c4)cc3)c(C)nc2cc1OCCN1CCCCC1
- GI50 [1]: 1.69 µM
- TGI [1]: 3.08 µM
- GI50 [2]: 1.9 µM
- TGI [2]: 3.48 µM
- GI50 [3]: 1.62 µM
- TGI [3]: 3.13 µM
- GI50 [4]: 1.56 µM
- TGI [4]: 2.92 µM
- GI50 [5]: 2.28 µM
- TGI [5]: 3.93 µM
- GI50 [6]: 1.68 µM
- TGI [6]: 3.76 µM
- GI50 [7]: 1.92 µM
- TGI [7]: 3.78 µM
- GI50 [8]: 1.81 µM
- TGI [8]: 3.3 µM
- GI50 [9]: 1.79 µM
- TGI [9]: 3.45 µM
- GI50 [10]: 1.59 µM
- TGI [10]: 3.26 µM
- GI50 [11]: 1.79 µM
- TGI [11]: 3.46 µM
- GI50 [12]: 1.48 µM
- TGI [12]: 2.94 µM
- GI50 [13]: 1.24 µM
- TGI [13]: 2.58 µM
- GI50 [14]: 1.64 µM
- TGI [14]: 3.09 µM
- GI50 [15]: 1.1 µM
- TGI [15]: 2.71 µM
- GI50 [16]: 1.87 µM
- TGI [16]: 3.53 µM
- GI50 [17]: 1.09 µM
- TGI [17]: 2.41 µM
- GI50 [18]: 1.46 µM
- TGI [18]: 3.29 µM
- GI50 [19]: 1.87 µM
- TGI [19]: 3.64 µM
- GI50 [20]: 1.25 µM
- TGI [20]: 2.59 µM
- GI50 [21]: 1.6 µM
- TGI [21]: 3.03 µM
- GI50 [22]: 1.53 µM
- TGI [22]: 2.87 µM
- GI50 [23]: 1.27 µM
- TGI [23]: 2.69 µM
- GI50 [24]: 1.31 µM
- TGI [24]: 2.64 µM
- GI50 [25]: 1.57 µM
- TGI [25]: 2.92 µM
- GI50 [26]: 1.54 µM
- TGI [26]: 2.98 µM
- GI50 [27]: 1.46 µM
- TGI [27]: 2.88 µM
- GI50 [28]: 1.58 µM
- TGI [28]: 2.94 µM
- GI50 [29]: 1.65 µM
- TGI [29]: 3.33 µM
- GI50 [30]: 1.64 µM
- TGI [30]: 3.17 µM
- GI50 [31]: 1.13 µM
- TGI [31]: 2.33 µM
- GI50 [32]: 1.39 µM
- TGI [32]: 2.75 µM
- GI50 [33]: 1.69 µM
- TGI [33]: 3.27 µM
- GI50 [34]: 1.85 µM
- TGI [34]: 3.46 µM
- GI50 [35]: 1.36 µM
- TGI [35]: 2.69 µM
- GI50 [36]: 0.547 µM
- TGI [36]: 2.33 µM
- GI50 [37]: 1.79 µM
- TGI [37]: 3.23 µM
- GI50 [38]: 1.85 µM
- TGI [38]: 3.47 µM
- GI50 [39]: 1.79 µM
- TGI [39]: 3.38 µM
- GI50 [40]: 1.68 µM
- TGI [40]: 3.19 µM
- GI50 [41]: 1.69 µM
- TGI [41]: 3.28 µM
- GI50 [42]: 1.67 µM
- TGI [42]: 3.26 µM
- GI50 [43]: 1.65 µM
- TGI [43]: 3.04 µM
- GI50 [44]: 1.92 µM
- TGI [44]: 3.38 µM
- GI50 [45]: 0.486 µM
- TGI [45]: 2.37 µM

SMILES: C[C@]12CC[C@H]3[C@@H](CCC4=CC(=O)CC[C@@H]43)[C@@H]1CC[C@@H]2OC(=O)N(CCCl)N=O
- GI50 [1]: 0.413 µM
- TGI [1]: 18.1 µM
- GI50 [2]: 1.75 µM
- TGI [2]: 26.7 µM
- GI50 [3]: 11.3 µM
- TGI [3]: 28.9 µM
- GI50 [4]: 3.54 µM
- TGI [4]: 32.5 µM
- GI50 [5]: 2.77 µM
- TGI [5]: 30 µM
- GI50 [6]: 1.45 µM
- TGI [6]: > 35.4 µM
- GI50 [7]: 4.27 µM
- TGI [7]: 21.4 µM
- GI50 [46]: 3.7 µM
- TGI [46]: 13.7 µM
- GI50 [47]: 7.07 µM
- TGI [47]: 29.8 µM
- GI50 [8]: 0.121 µM
- TGI [8]: > 44.6 µM
- GI50 [9]: 11.2 µM
- TGI [9]: 26 µM
- GI50 [10]: 5.79 µM
- TGI [10]: 29 µM
- GI50 [11]: 10.7 µM
- TGI [11]: 24.8 µM
- GI50 [12]: 0.172 µM
- TGI [12]: 15.8 µM
- GI50 [13]: 1.9 µM
- TGI [13]: 5.51 µM
- GI50 [14]: 2.95 µM
- TGI [14]: 19.2 µM
- GI50 [15]: 0.716 µM
- TGI [15]: > 32.6 µM
- GI50 [16]: 0.28 µM
- TGI [16]: 2.15 µM
- GI50 [17]: 0.391 µM
- TGI [17]: 17.5 µM
- GI50 [18]: 10.8 µM
- TGI [18]: 31.2 µM
- GI50 [19]: 3.07 µM
- TGI [19]: 28.6 µM
- GI50 [20]: 8.45 µM
- TGI [20]: 31.3 µM
- GI50 [21]: 7.83 µM
- TGI [21]: 21.8 µM
- GI50 [22]: 0.433 µM
- TGI [22]: 4.41 µM
- GI50 [23]: 5.02 µM
- TGI [23]: > 48.1 µM
- GI50 [24]: 0.51 µM
- TGI [24]: 27.6 µM
- GI50 [25]: 0.359 µM
- TGI [25]: > 37.7 µM
- GI50 [26]: 3.92 µM
- TGI [26]: 19.2 µM
- GI50 [48]: 14 µM
- TGI [48]: 34.1 µM
- GI50 [27]: 3.67 µM
- TGI [27]: 36.6 µM
- GI50 [28]: 0.0959 µM
- TGI [28]: 10.6 µM
- GI50 [29]: 3.1 µM
- TGI [29]: 20 µM
- GI50 [30]: 0.0723 µM
- TGI [30]: 4.82 µM
- GI50 [31]: 0.317 µM
- TGI [31]: 16.4 µM
- GI50 [32]: 14.2 µM
- TGI [32]: 37.9 µM
- GI50 [49]: 1.1 µM
- TGI [49]: 23.9 µM
- GI50 [50]: 3.52 µM
- TGI [50]: 29.3 µM
- GI50 [51]: 5.91 µM
- TGI [51]: 51.9 µM
- GI50 [33]: 2.96 µM
- TGI [33]: 31.9 µM
- GI50 [34]: 2.2 µM
- TGI [34]: 12.4 µM
- GI50 [35]: 0.837 µM
- TGI [35]: 14.1 µM
- GI50 [36]: 2.9 µM
- TGI [36]: 56 µM
- GI50 [52]: 0.167 µM
- TGI [52]: 17.6 µM
- GI50 [37]: 11.6 µM
- TGI [37]: 26.1 µM
- GI50 [38]: 0.0702 µM
- TGI [38]: 2.45 µM
- GI50 [39]: 11.1 µM
- TGI [39]: 43.8 µM
- GI50 [40]: 0.265 µM
- TGI [40]: 24.3 µM
- GI50 [53]: 0.393 µM
- TGI [53]: 14.8 µM
- GI50 [41]: 5.1 µM
- TGI [41]: 33.7 µM
- GI50 [42]: 1.69 µM
- TGI [42]: 21.4 µM
- GI50 [54]: 3.17 µM
- TGI [54]: 26.1 µM
- GI50 [55]: 0.346 µM
- TGI [55]: 17.4 µM
- GI50 [43]: 1.99 µM
- TGI [43]: 16.1 µM
- GI50 [56]: 5.2 µM
- TGI [56]: 34.2 µM
- GI50 [44]: 20.8 µM
- TGI [44]: 49.9 µM
- GI50 [45]: < 0.0381 µM
- GI50 [57]: 0.983 µM

SMILES: O=C1C2C(C(=O)N1c1ccc(OCc3ccccc3)cc1)C1c3ccccc3C2C2CCCCN21 (stereo unspecified)
- GI50 [46]: 79.7 µM
- GI50 [10]: 53.5 µM
- GI50 [29]: 73.3 µM
- GI50 [31]: 61.4 µM
- GI50 [35]: 32.7 µM
- GI50 [36]: 59.8 µM
- GI50 [40]: 47.6 µM
- GI50 [55]: 41.5 µM
- GI50 [57]: 64 µM
